Results from patent US20120184590A1, “FORMULATIONS OF INDOLE-3-CARBINOL DERIVED ANTITUMOR AGENTS WITH INCREASED ORAL BIOAVAILABILITY” (UNIVERSITY OF KANSAS, priority 2009, published 2012).
“Also recorded” adds a separate entry of the source. Marks after values point to notes of the source that are not given here.

Assays:
[1] = Stability of SR13668 in Solutol (25° C. and 4° C.), HPLC/Fluorescence; type: physicochemical; settings: stored as solid, prepared as aqueous solution, 25° C. storage
Method: A batch of 5 mg SR13668/g Solutol was made by stirring at 95° C. for 24 hrs. […] The sample was centrifuged while warm and no crystals were observed on the bottom of the tube. The sample was assayed from the top, middle and bottom of the centrifuge tube and there was no significant difference in the measurements. The SR13668 assay is an isocratic HPLC method with Fluorescence detection. The SR13668 concentration in Solutol was determined to be 5.00±0.09 mg/g (n=5).
Three types of samples from the above formulation (a. Solid Samples, b. Aqueous Solution and c. Solid stored and combined with water before assay) were stored at 25° C. (constant temperature bath) and 4° C. (refrigerator) and assayed weekly with the same HPLC/Fluorescence analytical method for 1-month.
Eppendorf tubes containing 1-mL samples of the above 5 mg SR13668/g Solutol solution were capped and stored under the two temperature conditions described above. At each time point the samples were melted and centrifuged at 95° C. No solids were ever observed in these samples.
In a 50-mL centrifuge tube, 12 g of the 5 mg SR13668/g Solutol melt was accurately weighed. The tube was tared and water, warmed to 70° C., was added to the 50 mL mark on the tube and weighed. The concentration of SR13668 in the aqueous solution was calculated based on the average SR13668/Solutol concentration of 5.00±0.09 mg/g, the weight of the Solutol and the total weight of solution in the tube. The tube was stored under the two temperature conditions described previously and the assayed amounts were compared with the theoretical. Observations were made on the tubes and there were no significant changes in the solutions and no solids were observed. The 25° C. tube did get a cloudy film layer, possibly biological growth. The layer dispersed after vigorous shaking. The 4° C. samples are cloudy, but clear up when warmed to room temperature. See results Table 8 and FIG. 5.
An accurately weighed 200 mg aliquot of the above 5 mg/g Solutol solution was stored at 25° C. and 4° C. At each time point, the solids were melted at 90° C. and 800 mg of accurately weighed 90° C. water was added. The samples were mixed and observations made. In all cases no solids were observed. A sample aliquot of the above aqueous solution was analyzed by HPLC/Fluorescence and the results compared with theoretical. See results Table 9 and FIG. 6. The analytical method is validated ±5% from theoretical. The majority of the samples fell within this limit.

[2] = Clinical observations and clinical pathology (liver enzymes) in monkeys; type: in vivo, cynomolgus monkeys (macaca fasicularis); settings: for ALT / AST / LDH: fed
Method: For both species, each animal was part of each experimental group, with a 7-day interval between treatments to allow for washout of the dosing formulation and its effects. Dosing formulations of SR13668 were administered by oral gavage (intragastric) or intravenous (i.v.) injection as a single dose or once daily for seven consecutive days. Oral to doses were administered at a dosing volume of 5 mL/kg of body weight, while intravenous doses were administered at a dosing volume of 0.5 mL/kg of body weight. Dogs were dosed with 93.6 mg/m^2 SR13668 intravenously in DMSO:PEG300 15:85 (v/v) or orally in Solutol® vehicle (two groups, fed and after an overnight fast). Monkeys were dosed with 84.2 mg/m^2 SR13668 intravenously in DMSO:PEG300 15:85 (v/v) or orally (336.7 mg/m^2 SR13668 for the oral high dose group) in PEG400:Labrasol® 1:1 (v/v) or Solutol® vehicles. Vehicle control groups were used to assess the tolerability of the vehicle and for clinical pathology evaluations.
At the end of each dosing period, the animals were examined for detailed clinical signs and symptoms (i.e., alterations of teeth, nose, eyes, perineum, pelage and body orifices; changes in appearance or behavior) and/or presence of any tissue masses. Body weights were recorded prior to treatment and daily during each testing interval. Quantitative (grams/day) food consumption data were recorded for dogs on a daily basis during each testing interval. Qualitative food consumption observations were recorded for monkeys on a daily basis during each testing interval. Blood samples for clinical pathology (clinical chemistry, hematology, and coagulation) parameter evaluation were collected from dogs and monkeys prior to dosing and on Days 2 and 8 post-dose, as well as from monkeys on Days 15 and 30 post-dose.

[3] = Day 2 (n = 2), 84.2 mg/m^2 (7.02 mg/kg) oral gavage daily days 1 through 7, PEG400:Labrasol 1:1 v/v
[4] = Day 8, 84.2 mg/m^2 (7.02 mg/kg) oral gavage daily days 1 through 7, PEG400:Labrasol 1:1 v/v
[5] = Day 15 (after discontinuation), 84.2 mg/m^2 (7.02 mg/kg) oral gavage daily days 1 through 7, PEG400:Labrasol 1:1 v/v
[6] = Day 30 (after discontinuation), 84.2 mg/m^2 (7.02 mg/kg) oral gavage daily days 1 through 7, PEG400:Labrasol 1:1 v/v
[7] = day 2 following a single dose, 84.2 mg/m^2 (7.02 mg/kg) iv, DMSO:PEG300 15:85 v/v
[8] = day 2 following a single dose, 84.2 mg/m^2 (7.02 mg/kg) oral gavage, Solutol
[9] = day 2 following a single dose, 336.7 mg/m^2 (28.06 mg/kg) oral gavage, PEG400:Labrasol 1:1 v/v
[10] = day 2 following a single dose, n = 4, 84.2 mg/m^2 (7.02 mg/kg) oral gavage, PEG400:Labrasol 1:1 v/v

CCOC(=O)c1ccc2[nH]c3c(OC)c4[nH]c5ccc(C(=O)OCC)cc5c4cc3c2c1 [SR13668, 2,10-dicarbethoxy-6-methoxy-5,7-dihydro-indolo-(2,3-b)carbazole]
% difference from Theory [1]; 0: −11.50% | Measured mg SR13668/g Solutol [1]; 0: 0.8630 mg SR13668/g Solutol | % difference from Theory ([1]; Day): −6.56% | Measured mg SR13668/g Solutol ([1]; Day): 0.9955 mg SR13668/g Solutol | % difference from Theory ([1]; Day 7): 3.38% | Measured mg SR13668/g Solutol ([1]; Day 7): 1.0308 mg SR13668/g Solutol | % difference from Theory ([1]; Day 14): 3.40% | Measured mg SR13668/g Solutol ([1]; Day 14): 0.9609 mg SR13668/g Solutol | % difference from Theory ([1]; Day 21): −5.45% | Measured mg SR13668/g Solutol ([1]; Day 21): 0.9374 mg SR13668/g Solutol | % difference from Theory ([1]; Day 28): −4.84% | Measured mg SR13668/g Solutol ([1]; Day 28): 0.9372 mg SR13668/g Solutol | adverse treatment-related clinical observations [2]: soft stools and diarrhea in orally but not i.v. dosed monkeys | effects on body weights, body weight gains or food consumption [2]: No significant treatment-related effects on body weights, body weight gains or food consumption | effects on clinical pathology (clinical chemistry, hematology, coagulation) [2]: modest, reversible increase in liver function enzymes; also recorded: modest increases in liver enzymes | mortality or morbidity [2]: no mortalities or morbidity | ALT [2, 3]: 112 ± 52 IU/L | AST [2, 3]: 234 ± 115 IU/L | LDH [2, 3]: 1022 ± 401 IU/L | ALT [2, 4]: 100 ± 38 ^a IU/L | AST [2, 4]: 178 ± 86 ^b IU/L | LDH [2, 4]: 1035 ± 596 IU/L | ALT [2, 5]: 41.3 ± 10 IU/L | AST [2, 5]: 24.0 ± 2.9 IU/L | LDH [2, 5]: 184 ± 39 IU/L | ALT [2, 6]: 33.3 ± 2.2 IU/L | AST [2, 6]: 22.5 ± 4.3 IU/L | LDH [2, 6]: 168 ± 39 IU/L | reversibility of liver enzyme increases ([2]; LDH, ALT, AST): reversible on discontinuation of dosing | ALT [2, 7]: 88.5 ± 37 IU/L | AST [2, 7]: 134 ± 41 ^b IU/L | LDH [2, 7]: 730 ± 210 ^c IU/L | ALT [2, 8]: 95.5 ± 33 IU/L | AST [2, 8]: 150 ± 40 ^b IU/L | LDH [2, 8]: 779 ± 403 IU/L | ALT [2, 9]: 108 ± 28 ^a IU/L | AST [2, 9]: 188 ± 34 ^b IU/L | LDH [2, 9]: 753 ± 242 ^c IU/L | ALT [2, 10]: 86.0 ± 24 IU/L | AST [2, 10]: 138 ± 75 IU/L | LDH [2, 10]: 795 ± 455 IU/L
